How the values were obtained:
[1] = test system: U937 cells; experiment: Cellular assay in U937 cells: activity of RIPK1 inhibitors on TNFα/zVAD.fmk-induced cell death (necroptosis), CellTiter 96 AQueous (MTS) readout; type: cell-based; settings: Homo sapiens, U-937
Method in brief: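 Necroptosis was measured by viable-cell MTS reduction (4 h, absorbance 490 nm) after overnight (18–24 h) 37° C culture. Cell suspensions of U937 cells carried TNFα (100 ng/ml) plus zVAD.fmk (50 μM) before compound was added. A 10-point curve (10 μM–0.26 nM or 1 μM–0.07 nM) was run in duplicate, normalised to the control lacking TNFα/zVAD.fmk.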

[2] = target: T1, hRIPK1 (aa 1-375) fusion protein (Homo sapiens, UniProt Q13546); experiment: ADP-Glo kinase assay: catalytic activity of RIPK1 (autophosphorylation, conversion of ATP to ADP); type: biochemical
T1 construct: hRIPK1 (aa 1-375) fusion protein
T1 sequence (Q13546 1-375): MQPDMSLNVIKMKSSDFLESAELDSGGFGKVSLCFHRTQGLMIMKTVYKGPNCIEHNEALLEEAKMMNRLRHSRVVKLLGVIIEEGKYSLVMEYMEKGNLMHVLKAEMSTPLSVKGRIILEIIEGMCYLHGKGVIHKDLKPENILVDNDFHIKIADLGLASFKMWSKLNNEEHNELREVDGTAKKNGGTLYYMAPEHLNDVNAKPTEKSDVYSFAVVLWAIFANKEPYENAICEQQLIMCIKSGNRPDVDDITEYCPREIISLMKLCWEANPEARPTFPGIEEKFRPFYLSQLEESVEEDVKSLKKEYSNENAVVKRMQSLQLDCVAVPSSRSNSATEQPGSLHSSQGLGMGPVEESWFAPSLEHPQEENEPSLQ
Method in brief: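 The readout was ADP-Glo luminescence after a 240 min rt autophosphorylation reaction with 50 μM ATP, following 30 min preincubation of 3.6 μg/ml hRIPK1 (aa 1-375) fusion with compound at 33300-1.69 nM final in 1% DMSO. Values came from Levenberg-Marquardt nonlinear fits.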

Structure (SMILES) | IC50 [2] | IC50 [1]
N#Cc1cnc2cnn(C[C@H]3CC[C@H](C(=O)N4OCC[C@H]4c4cc(F)cc(F)c4)CC3)c2c1 [compound 26, trans-1-((4-((S)-3-(3,5-difluorophenyl)isoxazolidine-2-carbonyl)cyclohexyl)methyl)-1H-pyrazolo[4,3-b]pyridine-6-carbonitrile] | 20 nM | 2 nM
Cc1ccc([C@@H]2CCON2C(=O)[C@H]2C[C@H](Cn3cnc4cc(F)ccc43)C2)cc1 [compound 114, trans-(3-((5-fluoro-1H-benzo[d]imidazol-1-yl)methyl)cyclobutyl)((S)-3-(p-tolyl)isoxazolidin-2-yl)methanone] | 34 nM | 174 nM
Cc1ncn(C[C@H]2CC[C@H](C(=O)N3OCC[C@H]3c3cc(F)cc(F)c3)CC2)c1C#N [compound 89, trans-1-((4-((S)-3-(3,5-difluorophenyl)isoxazolidine-2-carbonyl)cyclohexyl)methyl)-4-methyl-1H-imidazole-5-carbonitrile] | 34 nM | 38 nM
N#Cc1cc(F)cc([C@@H]2CCON2C(=O)[C@H]2CC[C@H](Cn3ncc4cc(C#N)ccc43)CC2)c1 [compound 53, trans-1-((4-((S)-3-(3-cyano-5-fluorophenyl)isoxazolidine-2-carbonyl)cyclohexyl)methyl)-1H-indazole-5-carbonitrile] | 17 nM | 4 nM
N#Cc1cc(F)cc([C@@H]2CCON2C(=O)[C@H]2CC[C@H](Cn3cc4cc(F)ccc4n3)CC2)c1 [compound 56, trans-3-fluoro-5-((S)-2-(4-((5-fluoro-2H-indazol-2-yl)methyl)cyclohexane-1-carbonyl)isoxazolidin-3-yl)benzonitrile] | 42 nM | 109 nM
Cc1nc2cc(F)ccc2n1C[C@H]1CC[C@H](C(=O)N2OCC[C@H]2c2cc(F)cc(C#N)c2)CC1 [compound 50, trans-3-fluoro-5-((S)-2-(4-((5-fluoro-2-methyl-1H-benzo[d]imidazol-1-yl)methyl)cyclohexane-1-carbonyl)isoxazolidin-3-yl)benzonitrile] | 27 nM | 29 nM
NC(=O)c1ccc2cn(C[C@H]3CC[C@H](C(=O)N4OCC[C@H]4c4cnccn4)CC3)nc2c1 [Compound 228, trans-2-[[4-[(3S)-3-pyrazin-2-ylisoxazolidine-2-carbonyl]cyclohexyl]methyl]indazole-6-carboxamide] | 65 nM | 191 nM
N#Cc1ccc2c(c1)ncn2C[C@H]1CC[C@H](C(=O)N2OCC[C@H]2c2cncc(F)c2)CC1 [compound 6, trans-1-((4-((S)-3-(5-fluoropyridin-3-yl)isoxazolidine-2-carbonyl)cyclohexyl)methyl)-1H-benzo[d]imidazole-5-carbonitrile] | 154 nM | 377 nM
N#Cc1cncc([C@@H]2CCON2C(=O)[C@H]2CC[C@H](Cn3ncc4cc(F)ccc43)CC2)c1 [compound 126, trans-5-((S)-2-(4-((5-fluoro-1H-indazol-1-yl)methyl)cyclohexane-1-carbonyl)isoxazolidin-3-yl)nicotinonitrile] | 37 nM | 29 nM
N#Cc1cc(F)cc([C@@H]2CCON2C(=O)[C@H]2CC[C@H](Cc3ccc(CCO)c(F)c3)CC2)c1 [compound 279, trans-3-fluoro-5-[(3S)-2-[4-[[3-fluoro-4-(2-hydroxyethyl)phenyl]methyl]cyclohexanecarbonyl]isoxazolidin-3-yl]benzonitrile] | 7 nM | 9 nM
Cc1cc(C[C@H]2CC[C@H](C(=O)N3OCC[C@H]3c3cnccn3)CC2)c(Cl)cn1 [compound 396, trans-[4-[(5-chloro-2-methylpyridin-4-yl)methyl]cyclohexyl]-[(3S)-3-pyrazin-2-yl-1,2-oxazolidin-2-yl]methanone] | 14 nM | 4 nM
O=C([C@H]1CC[C@H](Cc2cnccn2)CC1)N1OCC[C@H]1c1cnccn1 [compound 246, trans-[(3S)-3-pyrazin-2-ylisoxazolidin-2-yl]-[4-(pyrazin-2-ylmethyl)cyclohexyl]methanone] | 150 nM | 918 nM
Cc1ccc(C[C@H]2CC[C@H](C(=O)N3OCC[C@H]3c3cc(F)cc(C#N)c3)CC2)nn1 [compound 303, trans-3-fluoro-5-[(3S)-2-[4-[(6-methylpyridazin-3-yl)methyl]cyclohexanecarbonyl]isoxazolidin-3-yl]benzonitrile] | 7 nM | 16 nM

More lines, main results first:

IC50 [2] | Structure (SMILES) | IC50 [1]
33 nM | Cc1ccc([C@@H]2CCON2C(=O)[C@H]2CC[C@H](Cc3cc(C)ncc3C)CC2)cn1 [compound 354, trans-[4-(2,5-Dimethyl-pyridin-4-ylmethyl)-cyclohexyl]-[(S)-3-(6-methyl-pyridin-3-yl)-isoxazolidin-2-yl]-methanone] | 27 nM
31 nM | Cc1nnc2ccc(CC3CCC(C(=O)N4OCC[C@H]4c4cnccn4)CC3)c(C)n12 (stereo partly drawn) [compound 358, [4-[(3,5-dimethyl-[1,2,4]triazolo[4,3-a]pyridin-6-yl)methyl]cyclohexyl]-[(3S)-3-pyrazin-2-yl-1,2-oxazolidin-2-yl]methanone] | 481 nM
5 nM | CNC(=O)c1cc(F)cc(C[C@H]2CC[C@H](C(=O)N3OCC[C@H]3c3cc(F)cc(C#N)c3)CC2)c1 [compound 164, trans-3-[[4-[(3S)-3-(3-cyano-5-fluoro-phenyl)isoxazolidine-2-carbonyl]cyclohexyl]methyl]-5-fluoro-N-methyl-benzamide] | 7 nM
10 nM | Cc1ccc(C[C@H]2CC[C@H](C(=O)N3OCC[C@H]3c3cnccn3)CC2)cc1C#N [compound 139, trans-2-methyl-5-[[4-[(3S)-3-pyrazin-2-ylisoxazolidine-2-carbonyl]cyclohexyl]methyl]benzonitrile] | 2 nM
14 nM | N#Cc1cc2c(cnn2C[C@H]2CC[C@H](C(=O)N3OCC[C@H]3c3cc(F)cc(F)c3)CC2)cc1F [compound 86, trans-1-((4-((S)-3-(3,5-difluorophenyl)isoxazolidine-2-carbonyl)cyclohexyl)methyl)-5-fluoro-1H-indazole-6-carbonitrile] | 1 nM
18 nM | N#Cc1cc(F)cc([C@@H]2CCON2C(=O)[C@H]2CC[C@H](Cn3ncc4cc(C#N)c(F)cc43)CC2)c1 [compound 66, trans-1-((4-((S)-3-(3-cyano-5-fluorophenyl)isoxazolidine-2-carbonyl)cyclohexyl)methyl)-6-fluoro-1H-indazole-5-carbonitrile] | 2 nM
43 nM | N#Cc1cc2ncn(C[C@H]3CC[C@H](C(=O)N4OCC[C@H]4c4cc(F)cc(F)c4)CC3)c2cc1F [compound 10, trans-1-((4-((S)-3-(3,5-difluorophenyl)isoxazolidine-2-carbonyl)cyclohexyl)methyl)-6-fluoro-1H-benzo[d]imidazole-5-carbonitrile] | 8 nM
20 nM | Cc1nc(C[C@H]2CC[C@H](C(=O)N3OCCC3c3cnc(C)c(F)c3)CC2)cs1 (stereo partly drawn) [compound 360] | 7 nM
21 nM | O=C([C@H]1CC[C@H](Cn2cnc3cc(F)ccc32)CC1)N1OCC[C@H]1c1cc(F)cc(F)c1 [compound 49, trans-((S)-3-(3,5-difluorophenyl)isoxazolidin-2-yl)(4-((5-fluoro-1H-benzo[d]imidazol-1-yl)methyl)cyclohexyl)methanone] | 8 nM
23 nM | Cc1nn(C[C@H]2CC[C@H](C(=O)N3OCC[C@H]3c3cc(F)cc(C#N)c3)CC2)c2ccccc12 [compound 61, trans-3-fluoro-5-((S)-2-(4-((3-methyl-1H-indazol-1-yl)methyl)cyclohexane-1-carbonyl)isoxazolidin-3-yl)benzonitrile] | 11 nM
57 nM | Cc1nc2c(C)cc(C[C@H]3CC[C@H](C(=O)N4OCC[C@H]4c4csc(C)n4)CC3)cn2n1 [compound 361, trans-[4-(2,8-Dimethyl-[1,2,4]triazolo[1,5-a]352yridine-6-ylmethyl)-cyclohexyl]-[(S)-3-(2-methyl-thiazol-4-yl)-isoxazolidin-2-yl]-methanone] | 35 nM
35 nM | Cc1ccc([C@@H]2CCON2C(=O)[C@H]2CC[C@H](Cn3nc(C)cc3C)CC2)cc1 [compound 117, trans-(4-((3,5-dimethyl-1H-pyrazol-1-yl)methyl)cyclohexyl)((S)-3-(p-tolyl)isoxazolidin-2-yl)methanone] | 54 nM
37 nM | N#Cc1cnc2ccn(C[C@H]3CC[C@H](C(=O)N4OCC[C@H]4c4ccccn4)CC3)c2c1 [compound 188, trans-1-[[4-[(3S)-3-(2-pyridyl)isoxazolidine-2-carbonyl]cyclohexyl]methyl]pyrrolo[3,2-b]pyridine-6-carbonitrile] | 124 nM
21 nM | Cn1cc(C[C@H]2CC[C@H](C(=O)N3OCC[C@H]3c3cc(F)cc(C#N)c3)CC2)cn1 [compound 150, trans-3-fluoro-5-[(3S)-2-[4-[(1-methylpyrazol-4-yl)methyl]cyclohexanecarbonyl]isoxazolidin-3-yl]benzonitrile] | 25 nM
